From article PMC4965013, “Open Source Drug Discovery with the Malaria Box Compound Collection for Neglected Diseases and Beyond” (PLoS Pathogens, 2016)

What was measured:
[1] = system: P. falciparum 3D7 trophozoites; assay: Metabolomic fingerprint profiling LC-MS; assay type: cell-based, Plasmodium falciparum; set-up: UDP-D-glucose / ADP-D-glucose: unit not given here; conditions: for Acetyllysine / N-acetyl-L-ornithine / N-carbamoyl-L-aspartate / NADPH / dAMP / dCMP / dTDP / dTMP / dTTP / dihydroorotate / orotate / DLH / DLS/SDL/SID / PD / PEE / PVNF / 3-phosphoglycerate / ADP-D-glucose / ATP / CDP / D-sedoheptulose-1/7-phosphate / FAD / GMP / NAD+ / NADP+ / Octoluse Bisphosphate / Pyroglutamic acid / UDP-D-glucose / UDP-D-glucuronate / UDP-N-acetyl-glucosamine / UDP / UMP / UTP / a-ketoglutarate / citrate/isocitrate / cytidine / dATP / dGMP/AMP / fumarate / glucose-1/6-phosphate / glycerate / guanine / guanosine / hypoxanthine / indole / inosine / nicotinate / ornithine / phosphoenolpyruvate / pyruvate / ribose-phosphate / sarcosine/alanine / sn-glycerol-3-phosphate / succinate/methylmalonic acid / uridine / xanthosine: S2 Table Metabolomics; for Acetyllysine: metabolite Acetyllysine; for N-acetyl-L-ornithine: metabolite N-acetyl-L-ornithine; for N-carbamoyl-L-aspartate: metabolite N-carbamoyl-L-aspartate; for NADPH: metabolite NADPH; for dAMP: metabolite dAMP; for dCMP: metabolite dCMP; for dTDP: metabolite dTDP; for dTMP: metabolite dTMP; for dTTP: metabolite dTTP; for dihydroorotate: metabolite dihydroorotate; for orotate: metabolite orotate; for DLH: peptide DLH; for DLS/SDL/SID: peptide DLS/SDL/SID; for PD: peptide PD; for PEE: peptide PEE; for PVNF: peptide PVNF; for 3-phosphoglycerate: metabolite 3-phosphoglycerate; for ADP-D-glucose: metabolite ADP-D-glucose; for ATP: metabolite ATP; for CDP: metabolite CDP; for CDP / D-sedoheptulose-1/7-phosphate / GMP / Octoluse Bisphosphate / UDP / UMP / UTP / citrate/isocitrate / dGMP/AMP / fumarate / glucose-1/6-phosphate / glycerate / guanine / guanosine / inosine / pyruvate / sarcosine/alanine / succinate/methylmalonic acid / uridine / xanthosine: change in metabolite level after compound treatment; for D-sedoheptulose-1/7-phosphate: metabolite D-sedoheptulose-1/7-phosphate; for FAD: metabolite FAD; for GMP: metabolite GMP; for NAD+: metabolite NAD+; for NADP+: metabolite NADP+; for Octoluse Bisphosphate: metabolite Octoluse Bisphosphate; for Pyroglutamic acid: metabolite Pyroglutamic acid; for UDP-D-glucose: metabolite UDP-D-glucose; for UDP-D-glucuronate: metabolite UDP-D-glucuronate; for UDP-N-acetyl-glucosamine: metabolite UDP-N-acetyl-glucosamine; for UDP: metabolite UDP; for UMP: metabolite UMP; for UTP: metabolite UTP; for a-ketoglutarate: metabolite a-ketoglutarate; for citrate/isocitrate: metabolite citrate/isocitrate; for cytidine: metabolite cytidine; for dATP: metabolite dATP; for dGMP/AMP: metabolite dGMP/AMP; for fumarate: metabolite fumarate; for glucose-1/6-phosphate: metabolite glucose-1/6-phosphate; for glycerate: metabolite glycerate; for guanine: metabolite guanine; for guanosine: metabolite guanosine; for hypoxanthine: metabolite hypoxanthine; for indole: metabolite indole; for inosine: metabolite inosine; for 2_3-Diphosphoglyceric acid / 4-phosphopantothenate / 6-phospho-D-gluconate / FMN / IMP / Pyrophosphate / Sedoheptoluse bisphosphate / cyclic-AMP / glutathione disulfide / lactate / myo-inositol: metabolite level change after treatment; for nicotinate: metabolite nicotinate; for ornithine: metabolite ornithine; for phosphoenolpyruvate: metabolite phosphoenolpyruvate; for pyruvate: metabolite pyruvate; for ribose-phosphate: metabolite ribose-phosphate; for sarcosine/alanine: metabolite sarcosine/alanine; for sn-glycerol-3-phosphate: metabolite sn-glycerol-3-phosphate; for succinate/methylmalonic acid: metabolite succinate/methylmalonic acid; for uridine: metabolite uridine; for xanthosine: metabolite xanthosine
P. falciparum = assay: EC50 listed in S2 Table Metabolomics (used to set the concentration tested); assay type: cell-based; conditions: Plasmodium falciparum; EC50 used for Factor_XEC50 in metabolomics; read-out: EC50_nM

Which results are given for `Cc1ccc(Nc2nc(NCCO)c3ccccc3n2)cc1C` [MMV001038]?
Acetyllysine [1]: -1.736; N-acetyl-L-ornithine [1]: -0.8338; N-carbamoyl-L-aspartate [1]: 2.2667; NADPH [1]: 1.133; dAMP [1]: 0.6638; dCMP [1]: -0.6324; dTDP [1]: 0.5044; dTMP [1]: 1.028; dTTP [1]: -1.24; dihydroorotate [1]: 2.22; orotate [1]: -0.01519; DLH [1]: -3.038; DLS/SDL/SID [1]: -1.162; PD [1]: -0.2116; PEE [1]: -5.814; PVNF [1]: -1.547; 3-phosphoglycerate [1]: 0.5584; ADP-D-glucose [1]: 0.41; ATP [1]: -0.8212; CDP [1]: -0.1382; D-sedoheptulose-1/7-phosphate [1]: 0.3347; FAD [1]: 0.9327; GMP [1]: 0.5554; NAD+ [1]: 0.6377; NADP+ [1]: 1.018; Octoluse Bisphosphate [1]: 0.3963; Pyroglutamic acid [1]: -0.8623; UDP-D-glucose [1]: 0.149; UDP-D-glucuronate [1]: 0.1087; UDP-N-acetyl-glucosamine [1]: 0.4035; UDP [1]: 0.7043; UMP [1]: -0.2063; UTP [1]: -0.5445; a-ketoglutarate [1]: -0.3007; citrate/isocitrate [1]: -0.768; cytidine [1]: 0.3191; dATP [1]: -1.248; dGMP/AMP [1]: 0.4665; fumarate [1]: -0.3966; glucose-1/6-phosphate [1]: 3.518; glycerate [1]: 0.8355; guanine [1]: -0.1055; guanosine [1]: -0.4181; hypoxanthine [1]: 0.2457; indole [1]: -0.2391; inosine [1]: 0.4136; 2_3-Diphosphoglyceric acid [1]: 0.3981; 4-phosphopantothenate [1]: 0.7744; 6-phospho-D-gluconate [1]: -0.4519; FMN [1]: 0.7846; IMP [1]: 0.7773; Pyrophosphate [1]: -0.6549; Sedoheptoluse bisphosphate [1]: 0.6681; cyclic-AMP [1]: 0.8549; glutathione disulfide [1]: 0.7162; lactate [1]: 1.5312; myo-inositol [1]: 3.154; nicotinate [1]: -0.4211; ornithine [1]: -0.2093; phosphoenolpyruvate [1]: 0.02444; pyruvate [1]: 0.2652; ribose-phosphate [1]: 0.4889; sarcosine/alanine [1]: -0.4284; sn-glycerol-3-phosphate [1]: 0.01718; succinate/methylmalonic acid [1]: -0.401; uridine [1]: 0.3457; xanthosine [1]: -1.776; EC50 (P. falciparum): 428 nM

With `CCCCCCOC(=O)C1=C(C)NC(=O)NC1c1ccccc1F` (stereo not drawn) [MMV007686] as the compound, how does the Acetyllysine [1] read?
The Acetyllysine was -0.6021.

And the N-acetyl-L-ornithine [1]?
The N-acetyl-L-ornithine was -0.5247.

What about the N-carbamoyl-L-aspartate [1] of the same compound?
The N-carbamoyl-L-aspartate was -0.1545.

And the NADPH [1]?
Its NADPH is -0.6448.

What about the dAMP [1] of the same compound?
Its dAMP is -0.475.

What about the dCMP [1] of the same compound?
The dCMP was 0.2166.

And the dTDP [1]?
Its dTDP is -0.8182.

And the dTMP [1]?
The dTMP was -0.71.

What about the dTTP [1] of the same compound?
The dTTP was -0.2978.

And the dihydroorotate [1]?
Its dihydroorotate is 0.04156.

And the orotate [1]?
Its orotate is 0.1913.

And the DLH [1]?
Its DLH is 0.3631.

What about the DLS/SDL/SID [1] of the same compound?
The DLS/SDL/SID was 0.06173.

And the PD [1]?
The PD was -0.2456.

What about the PEE [1] of the same compound?
The PEE was -0.1279.

And the PVNF [1]?
The PVNF was 0.4591.

And the 3-phosphoglycerate [1]?
Its 3-phosphoglycerate is 0.4561.

And the ADP-D-glucose [1]?
The ADP-D-glucose was 0.08489.

What about the ATP [1] of the same compound?
Its ATP is -0.09097.

What about the CDP [1] of the same compound?
Its CDP is -1.124.

What about the D-sedoheptulose-1/7-phosphate [1] of the same compound?
The D-sedoheptulose-1/7-phosphate was -0.6707.

What about the FAD [1] of the same compound?
The FAD was -0.2456.

And the GMP [1]?
The GMP was 0.9608.

What about the “NAD+” value [1] of the same compound?
Its value is -0.04958.

And the “NADP+” value [1]?
Its value is -0.001559.

And the “Octoluse Bisphosphate” value [1]?
The value was -0.1324.

And the Pyroglutamic acid [1]?
The Pyroglutamic acid was 0.9271.

What about the UDP-D-glucose [1] of the same compound?
Its UDP-D-glucose is -0.1029.

And the UDP-D-glucuronate [1]?
The UDP-D-glucuronate was -0.1902.

What about the UDP-N-acetyl-glucosamine [1] of the same compound?
The UDP-N-acetyl-glucosamine was -0.1743.

What about the UDP [1] of the same compound?
Its UDP is -1.121.

What about the UMP [1] of the same compound?
Its UMP is 0.7368.

What about the UTP [1] of the same compound?
The UTP was -0.5193.

And the a-ketoglutarate [1]?
The a-ketoglutarate was 0.8749.

And the citrate/isocitrate [1]?
Its citrate/isocitrate is 0.6672.

And the cytidine [1]?
Its cytidine is 0.271.

What about the dATP [1] of the same compound?
The dATP was -0.2157.

And the dGMP/AMP [1]?
The dGMP/AMP was -0.5696.

What about the fumarate [1] of the same compound?
Its fumarate is 0.5304.

And the glucose-1/6-phosphate [1]?
The glucose-1/6-phosphate was -0.0799.

And the glycerate [1]?
The glycerate was 0.5979.

What about the guanine [1] of the same compound?
Its guanine is -0.1143.

And the guanosine [1]?
Its guanosine is -0.2083.

What about the hypoxanthine [1] of the same compound?
Its hypoxanthine is 0.8142.

What about the indole [1] of the same compound?
Its indole is 0.4434.

What about the inosine [1] of the same compound?
Its inosine is 0.6048.

What about the 2_3-Diphosphoglyceric acid [1] of the same compound?
Its 2_3-Diphosphoglyceric acid is -0.3849.

What about the 4-phosphopantothenate [1] of the same compound?
The 4-phosphopantothenate was -0.1203.

What about the 6-phospho-D-gluconate [1] of the same compound?
Its 6-phospho-D-gluconate is -0.2727.

And the FMN [1]?
The FMN was -0.1451.

What about the IMP [1] of the same compound?
Its IMP is -0.1074.

What about the Pyrophosphate [1] of the same compound?
The Pyrophosphate was -0.313.

And the Sedoheptoluse bisphosphate [1]?
Its Sedoheptoluse bisphosphate is -0.1202.

What about the cyclic-AMP [1] of the same compound?
The cyclic-AMP was -0.174.

And the glutathione disulfide [1]?
Its glutathione disulfide is -0.2538.

And the lactate [1]?
The lactate was 0.3995.

And the myo-inositol [1]?
Its myo-inositol is 0.04912.

What about the nicotinate [1] of the same compound?
Its nicotinate is 0.5888.

What about the ornithine [1] of the same compound?
The ornithine was 0.3712.

And the phosphoenolpyruvate [1]?
Its phosphoenolpyruvate is 0.6171.

And the pyruvate [1]?
Its pyruvate is 0.7724.

And the ribose-phosphate [1]?
Its ribose-phosphate is 0.6092.

What about the sarcosine/alanine [1] of the same compound?
Its sarcosine/alanine is 0.1752.

What about the sn-glycerol-3-phosphate [1] of the same compound?
Its sn-glycerol-3-phosphate is 0.5669.

What about the succinate/methylmalonic acid [1] of the same compound?
Its succinate/methylmalonic acid is 0.1316.

What about the uridine [1] of the same compound?
The uridine was 0.4569.

And the xanthosine [1]?
Its xanthosine is 0.7187.

And the EC50 (P. falciparum)?
The EC50 was 106 nM.

What does the source list for `COc1ccc(NC(=O)C2c3ccccc3C(=O)N(CC(C)C)C2c2cccs2)cc1` (stereo not drawn) [MMV000662]?
Acetyllysine [1]: -4.572; N-acetyl-L-ornithine [1]: -3.381; N-carbamoyl-L-aspartate [1]: -2.466; NADPH [1]: 2.406; dAMP [1]: 2.2996; dCMP [1]: 1.058; dTDP [1]: 1.444; dTMP [1]: 3.186; dTTP [1]: 1.443; dihydroorotate [1]: -3.591; orotate [1]: -0.05867; DLH [1]: -6.2862; DLS/SDL/SID [1]: -4.745; PD [1]: -2.987; PEE [1]: -3.507; PVNF [1]: -6.642; 3-phosphoglycerate [1]: 0.247; ADP-D-glucose [1]: -0.1909; ATP [1]: -1.375; CDP [1]: -0.7124; D-sedoheptulose-1/7-phosphate [1]: -1.119; FAD [1]: -1.511; GMP [1]: -1.853; NAD+ [1]: -0.4043; NADP+ [1]: -0.01609; Octoluse Bisphosphate [1]: -2.194; Pyroglutamic acid [1]: 0.3441; UDP-D-glucose [1]: -0.06213; UDP-D-glucuronate [1]: -0.01201; UDP-N-acetyl-glucosamine [1]: 0.08846; UDP [1]: -1.277; UMP [1]: -0.622; UTP [1]: -1.315; a-ketoglutarate [1]: 0.4405; citrate/isocitrate [1]: 0.05797; cytidine [1]: 0.7559; dATP [1]: 0.06895; dGMP/AMP [1]: -0.6193; fumarate [1]: -0.1354; glucose-1/6-phosphate [1]: -1.428; glycerate [1]: -0.4765; guanine [1]: 0.7318; guanosine [1]: 1.459; hypoxanthine [1]: 0.3686; indole [1]: 0.3717; inosine [1]: 0.5573; 2_3-Diphosphoglyceric acid [1]: -1.11; 4-phosphopantothenate [1]: -0.6744; 6-phospho-D-gluconate [1]: -0.3651; FMN [1]: 0.04988; IMP [1]: -0.0547; Pyrophosphate [1]: -1.578; Sedoheptoluse bisphosphate [1]: -1.096; cyclic-AMP [1]: -0.7789; glutathione disulfide [1]: -0.5026; lactate [1]: -0.6017; myo-inositol [1]: -0.9859; nicotinate [1]: 1.185; ornithine [1]: 0.01334; phosphoenolpyruvate [1]: 0.5172; pyruvate [1]: -1.672; ribose-phosphate [1]: -0.9727; sarcosine/alanine [1]: -1.6779; sn-glycerol-3-phosphate [1]: 0.8186; succinate/methylmalonic acid [1]: 0.3034; uridine [1]: 1.71; xanthosine [1]: -1.3795; EC50 (P. falciparum): 36.7 nM
